Test results reported in patent US20190031665A1, “DERIVATIVES OF PYRROLOIMIDAZOLE OR ANALOGUES THEREOF WHICH ARE USEFUL FOR THE TREATMENT OF INTER ALIA CANCER” (EMCURE PHARMACEUTICALS LIMITED, priority 2016, published 2019).

Tests used:
[1] = molecular target: T1, human indoleamine 2,3-dioxygenase 1 (hIDO1) (Homo sapiens, UniProt P14902); test: In-vitro human indoleamine 2,3-dioxygenase 1 (IDO1) enzyme assay; format: biochemical; settings: for inhibition at 1 µM: hIDO1 enzyme at 1.0 μM concentration; for inhibition at 10 µM: hIDO1 enzyme at 10.0 μM concentration; for IC50: hIDO1 enzyme
T1 construct: His tag (N); purchased BPS Bioscience, San Diego, Calif., USA; host or cells: E. coli
T1 sequence (P14902 whole entry): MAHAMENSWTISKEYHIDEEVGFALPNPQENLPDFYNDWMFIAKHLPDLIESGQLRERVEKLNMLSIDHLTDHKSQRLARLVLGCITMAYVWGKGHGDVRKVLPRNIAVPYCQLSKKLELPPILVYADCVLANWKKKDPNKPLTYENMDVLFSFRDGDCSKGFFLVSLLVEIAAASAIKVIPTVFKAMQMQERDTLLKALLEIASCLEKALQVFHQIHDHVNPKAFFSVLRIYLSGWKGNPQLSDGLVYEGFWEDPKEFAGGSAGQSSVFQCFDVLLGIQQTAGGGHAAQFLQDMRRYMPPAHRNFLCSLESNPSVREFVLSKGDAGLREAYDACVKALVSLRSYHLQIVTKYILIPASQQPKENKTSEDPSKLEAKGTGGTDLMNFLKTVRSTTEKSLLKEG
Summary of the method: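 His-tagged hIDO1 (E. coli, 50 ng) incubated with 80 μM tryptophan, 10 mM ascorbate, 10 μM methylene blue, catalase and 0.01% Tween-20 in 50 mM sodium phosphate pH 6.5, 60 min, 37 °C. Piperidine converts N-formylkynurenine to fluorescent NFK-PIP (ex 400/em 500 nm); IC50 by nonlinear regression.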

[2] = molecular target: T2, human tryptophan 2,3-dioxygenase (hTDO) (Homo sapiens, UniProt P48775); test: In-vitro human tryptophan 2,3-dioxygenase (TDO) enzyme assay; format: biochemical; settings: for inhibition at 1 µM: hTDO enzyme at 1.0 μM concentration; for inhibition at 10 µM: hTDO enzyme at 10.0 μM concentration
T2 construct: His tag (N); purchased BPS Bioscience, San Diego, Calif., USA; host or cells: E. coli
T2 sequence (P48775 whole entry): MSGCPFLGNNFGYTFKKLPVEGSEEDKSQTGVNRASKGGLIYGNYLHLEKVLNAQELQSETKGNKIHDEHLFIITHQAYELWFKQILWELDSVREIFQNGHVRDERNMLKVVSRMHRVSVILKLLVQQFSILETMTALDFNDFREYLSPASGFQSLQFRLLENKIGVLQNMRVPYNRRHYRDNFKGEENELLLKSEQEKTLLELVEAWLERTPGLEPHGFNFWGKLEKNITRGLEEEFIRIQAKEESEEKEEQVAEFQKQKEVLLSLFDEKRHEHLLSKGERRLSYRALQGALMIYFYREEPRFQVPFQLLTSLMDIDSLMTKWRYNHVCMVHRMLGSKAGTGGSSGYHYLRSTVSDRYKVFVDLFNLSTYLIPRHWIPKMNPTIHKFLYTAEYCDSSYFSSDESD
Summary of the method: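 N-His-tagged hTDO expressed in E. coli (125 ng) incubated with 200 μM L-tryptophan, 100 mM sodium phosphate pH 7.0, 0.01% Tween-20, 100 μM ascorbate, 60 min at 37 °C. Product converted with 200 mM piperidine (65 °C, 20 min) to NFK-PIP, fluorescence 400/500 nm; IC50 by nonlinear regression.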

SMILES | inhibition at 1 µM [1] [%] | inhibition at 10 µM [1] [%] | inhibition at 1 µM [2] [%] | IC50 [1] [nM] | inhibition at 10 µM [2] [%]
CC1=C(c2ccccc2)C(CC(O)c2ccc(C3CCCCC3)cc2)n2cncc21 (centres unmarked) [Example 74] | ≤ 50 | ≥ 50 | ≤ 50 | – | –
CC1=C(c2ccccc2)C(CC(=O)c2ccc(OCc3ccccc3)cc2)n2cncc21 (centres unmarked) [Example 75, 1-(4-(benzyloxy)phenyl)-2-(7-methyl-6-phenyl-5H-pyrrolo[1,2-c]imidazol-5-yl)ethan-1-one] | ≥ 50 | ≥ 50 | ≥ 50 | < 500 | –
CC1=C(c2ccccc2)C(CC(=O)c2ccc(Oc3ccccc3F)cc2)n2cncc21 (centres unmarked) [Example 76, 1-(4-(2-fluorophenoxy)phenyl)-2-(7-methyl-6-phenyl-5H-pyrrolo[1,2-c]imidazol-5-yl)ethan-1-one] | ≥ 50 | ≥ 50 | ≤ 50 | < 500 | –
CC1=C(c2ccccc2)C(CC(=O)c2ccc(C(=O)Nc3ccccc3)cc2)n2cncc21 (centres unmarked) [Example 77] | ≥ 50 | ≥ 50 | ≥ 50 | < 500 | –
CNC(=O)c1ccc(C(=O)CC2C(c3ccccc3)=C(C)c3cncn32)cc1 (centres unmarked) [Example 78] | ≥ 50 | ≥ 50 | ≥ 50 | – | ≥ 50
CC1=C(c2ccccc2)C(CC(=O)c2ccc(C(=O)Nc3cccnc3)cc2)n2cncc21 (centres unmarked) [Example 79] | ≥ 50 | ≥ 50 | ≥ 50 | > 500 | –
CC1=C(c2ccccc2)C(CC(=O)c2ccc(C(=O)Nc3ccc(Cl)cc3)cc2)n2cncc21 (centres unmarked) [Example 80] | ≥ 50 | ≥ 50 | ≥ 50 | – | –
CC1=C(c2ccccc2)C(CC(=O)c2ccc(C(=O)Nc3ccc(F)cc3F)cc2)n2cncc21 (centres unmarked) [Example 81] | ≥ 50 | ≥ 50 | ≥ 50 | < 500 | –
CC1=C(c2ccccc2)C(CC(O)c2ccc(C(=O)Nc3ccc(Cl)cc3)cc2)n2cncc21 (centres unmarked) [Example 82] | ≤ 50 | ≥ 50 | ≤ 50 | – | –
CC1=C(c2ccccc2)C(CC(=O)c2ccc(C(=O)Nc3ccc(C)cc3C)cc2)n2cncc21 (centres unmarked) [Example 84] | ≥ 50 | ≥ 50 | ≥ 50 | – | –
CC1=C(c2ccc(C)cc2)C(CC(=O)C2CCCCC2)n2cncc21 (centres unmarked) [Example 86, 1-Cyclohexyl-2-(7-methyl-6-(p-tolyl)-5H-pyrrolo[1,2-c]imidazol-5-yl)ethan-1-one] | ≤ 50 | ≤ 50 | ≥ 50 | – | –
CC1=C(c2ccc(C)cc2)C(CC(O)C2CCCCC2)n2cncc21 (centres unmarked) [Example 87, 1-Cyclohexyl-2-(7-methyl-6-(p-tolyl)-5H-pyrrolo[1,2-c]imidazol-5-yl)ethan-1-ol] | ≤ 50 | ≥ 50 | ≥ 50 | – | –
CC1=C(c2ccccc2)C(CC(=O)C2CCCCC2)n2cncc21 (centres unmarked) [Example 88, 1-Cyclohexyl-2-(7-methyl-6-phenyl-5H-pyrrolo[1,2-c]imidazol-5-yl)-ethanone] | – | ≥ 50 | ≥ 50 | > 500 | ≥ 50
CC1=C(c2ccccc2)C(CC(O)C2CCCCC2)n2cncc21 (centres unmarked) [Example 89, 1-Cyclohexyl-2-(7-methyl-6-phenyl-5H-pyrrolo[1,2-c]imidazol-5-yl)-ethane-1-ol] | ≥ 50 | ≥ 50 | ≥ 50 | < 500 | ≥ 50
CC1=C(c2cccc(Cl)c2)C(CC(=O)C2CCCCC2)n2cncc21 (centres unmarked) [Example 95] | ≤ 50 | ≥ 50 | ≤ 50 | – | –
CC1=C(c2cccc(Cl)c2)C(CC(O)C2CCCCC2)n2cncc21 (centres unmarked) [Example 96] | ≤ 50 | ≥ 50 | ≤ 50 | – | –
CC1=C(c2ccccc2)C(CC(=O)C2CCC(O)CC2)n2cncc21 (centres unmarked) [Example 99] | ≤ 50 | ≥ 50 | ≥ 50 | – | –
CC1=C(c2ccccc2)C(CC(=O)C2CCOCC2)n2cncc21 (centres unmarked) [Example 100] | ≤ 50 | ≥ 50 | ≥ 50 | – | –

SMILES | inhibition at 1 µM [1] [%] | inhibition at 10 µM [1] [%] | inhibition at 1 µM [2] [%] | IC50 [1] [nM] | inhibition at 10 µM [2] [%]
CC1=C(c2ccccc2F)C(CC(=O)C2CCCCC2)n2cncc21 (centres unmarked) [Example 101] | ≤ 50 | ≥ 50 | ≥ 50 | – | –
O=C(CC1C(c2ccccc2)=C(c2ccccc2)c2cncn21)C1CCCCC1 (centres unmarked) [Example 102] | ≤ 50 | ≤ 50 | ≤ 50 | – | –
OC(CC1C(c2ccccc2)=C(c2ccccc2)c2cncn21)C1CCCCC1 (centres unmarked) [Example 103] | ≤ 50 | ≤ 50 | ≤ 50 | – | –
COc1ccc(C2=C(C)c3cncn3C2CC(=O)C2CCCCC2)cc1 (centres unmarked) [Example 104] | ≤ 50 | ≤ 50 | ≤ 50 | – | –
CC1=C(c2ccccc2C)C(CC(O)C2CCCCC2)n2cncc21 (centres unmarked) [Example 105] | ≤ 50 | ≥ 50 | ≤ 50 | – | –
CC(C)C1=C(c2ccccc2)C(CC(=O)C2CCCCC2)n2cncc21 (centres unmarked) [Example 106] | ≤ 50 | ≤ 50 | ≤ 50 | – | –
CC1=C(c2ccccc2)C(CC(=O)C23CC4CC(CC(C4)C2)C3)n2cncc21 (centres unmarked) [Example 107] | ≤ 50 | ≥ 50 | ≥ 50 | – | –
CC1=C(c2ccccc2)C(CC(O)C23CC4CC(CC(C4)C2)C3)n2cncc21 (centres unmarked) [Example 108] | ≥ 50 | ≥ 50 | ≥ 50 | – | –
CC1=C(c2ccccc2)C(CC(=O)C2CCC(C(=O)Nc3ccccc3)CC2)n2cncc21 (centres unmarked) [Example 109, 4-(2-(7-methyl-6-phenyl-5H-pyrrolo[1,2-c]imidazol-5-yl)acetyl)-N-phenylcyclohexane-1-carboxamide] | ≤ 50 | ≥ 50 | ≥ 50 | – | –
CC1=C(c2ccccc2)C(CC(=O)C2CCC(C(=O)Nc3ccc(F)cc3F)CC2)n2cncc21 (centres unmarked) [Example 110] | ≤ 50 | ≥ 50 | ≥ 50 | – | –
CC1=C(c2ccccc2)C(C[C@H](O)C2CCC(C(=O)Nc3ccccc3)CC2)n2cncc21 (some centres unmarked) [Example 112] | ≥ 50 | ≥ 50 | ≥ 50 | < 500 | –
CC1=C(c2ccccc2)C(CC(=O)C2CCCN2S(=O)(=O)c2ccc(C)cc2)n2cncc21 (centres unmarked) [Example 113] | ≤ 50 | ≥ 50 | ≥ 50 | – | –
CC1=C(c2ccccc2)C(C[C@@H](O)C2CCCN2S(=O)(=O)c2ccc(C)cc2)n2cncc21 (some centres unmarked) [Example 114] | ≤ 50 | ≥ 50 | ≥ 50 | – | –
CC1=C(c2ccccc2)C(CC(=O)C2CCCN2C(=O)c2ccccc2)n2cncc21 (centres unmarked) [Example 115] | ≤ 50 | ≤ 50 | ≤ 50 | – | –
CC1=C(c2ccccc2)C(C[C@@H](O)C2CCCN2C(=O)c2ccccc2)n2cncc21 (some centres unmarked) [Example 116] | ≤ 50 | ≤ 50 | ≤ 50 | – | –
CC1=C(c2ccccc2)C(CC(=O)C2CCC(C(=O)Nc3ccncc3)CC2)n2cncc21 (centres unmarked) [Example 117] | ≥ 50 | ≥ 50 | ≥ 50 | > 500 | –
CC1=C(c2ccccc2)C(CC(=O)C2CCC(C(=O)Nc3ccc(Cl)cc3C)CC2)n2cncc21 (centres unmarked) [Example 118] | ≥ 50 | ≥ 50 | ≥ 50 | – | –
